Laboratory results taken from US7026281B1, “Antagonistic analogs of GH-RH inhibiting IGF-I and -II” (The Administrators of the Tulane Educational Fund, priority 1998, dated 2006).
Marks after values point to notes of the source that are not given here. Square brackets hold non-standard residues; d marks the D form. Peptide text beside a SMILES is read from it. * marks the point of attachment. Phe(4-Cl) = N[C@@H](Cc1ccc(Cl)cc1)C(=O)O; hArg = N=C(N)NCCCC[C@H](N)C(=O)O; Nle = CCCC[C@H](N)C(=O)O; Abu = CC[C@H](N)C(=O)O; PhAc = O=C(Cc1ccccc1)*

Legend:
[1] = tested on: HT-29 human colon cancers; experiment: HT-29 human colon cancer xenografts in nude mice; assay type: in vivo; details: 20 μg daily sc., 6 weeks; for Final tumor volume (mm^3) / Tumor weight: nude mice
Protocol: HT-29 human colon cancers were transplanted sc. into male nude mice. 19 days after transplantation, the mice were divided into groups of 10 animals each, and the treatment was started. The mice received single daily injections of various GH-RH antagonists sc. at 20 μg dose per day for 6 weeks. Tumors were measured regularly, and tumor volume was calculated. The mice were sacrificed at the end of experiment and tumor weights were measured.

[2] = molecular target: T1, rat pituitary GH-RH receptors (Rattus norvegicus, UniProt Q02644); experiment: GH-RH radioreceptor binding assay, rat anterior pituitary membrane homogenates; details: for Ki: competition with [His1,125I-Tyr10,Nle27]hGH-RH(1–32)NH2; for R.A. (relative affinity compared to Standard antagonist): ratio of Ki values
T1 construct: from tissue; host or cells: anterior pituitary of male Sprague-Dawley rats, crude membrane homogenates
T1 sequence (Q02644 23-464): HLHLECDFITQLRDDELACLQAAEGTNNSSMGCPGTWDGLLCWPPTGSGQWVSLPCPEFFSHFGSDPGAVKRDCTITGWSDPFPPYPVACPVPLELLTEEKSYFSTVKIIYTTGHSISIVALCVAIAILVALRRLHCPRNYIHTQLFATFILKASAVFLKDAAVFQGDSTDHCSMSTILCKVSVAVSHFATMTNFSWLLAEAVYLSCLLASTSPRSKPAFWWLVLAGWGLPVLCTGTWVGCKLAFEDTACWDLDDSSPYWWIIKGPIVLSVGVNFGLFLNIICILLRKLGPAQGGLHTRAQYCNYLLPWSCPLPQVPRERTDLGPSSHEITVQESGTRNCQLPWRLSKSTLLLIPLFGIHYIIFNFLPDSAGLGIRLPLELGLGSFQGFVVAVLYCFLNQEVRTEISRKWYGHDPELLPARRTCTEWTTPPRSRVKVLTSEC
How it was run: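 Antagonists competed with [His^1,^125I-Tyr^10,Nle^27]hGH-RH(1–32)NH2 for binding to crude anterior pituitary membranes from male Sprague-Dawley rats, with γ-counting of the pellet. Ki came from Munson–Rodbard analysis. Relative affinity is the Ki of the test antagonist divided by the Ki of standard [Ac-Tyr^1,D-Arg^2]hGH-RH(1–29)NH2.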

[3] = tested on: hGH-RH(1–29)NH2 induced GH release; experiment: Inhibition of GH release in superfused rat pituitary system; assay type: cell-based; details: antagonist 30 nM; for Inhibition of GH release (%) 30 min: 1 nM hGH-RH(1–29)NH2 30 min later; for Inhibition of GH release (%) 60 min: 1 nM hGH-RH(1–29)NH2 60 min later; for Inhibition of GH release (%) 90 min: 1 nM hGH-RH(1–29)NH2 90 min later; for Inhibition of GH release (%) 120 min: 1 nM hGH-RH(1–29)NH2 120 min later; for Inhibition of GH release (%) 0 min: 1 nM hGH-RH(1–29)NH2 at 0 min
How it was run: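 Superfused rat pituitary cells preincubated 9 min with peptide, then challenged for 3 min with 1 nM hGH-RH(1–29)NH2 at 0, 30, 60, 90 and 120 min. Rat GH measured by double-antibody RIA; net integral GH responses expressed as percent of the original 1 nM GH-RH-induced response.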

[4] = tested on: GH release stimulated by hGH-RH(1–29)NH2; experiment: In vivo inhibition of serum GH response in rats; parameters: species or system rat; details: for Inhibition of the GH release stimulated by hGH-RH(1–29)NH2 (in words): 80 μg/kg i.v., rats
How it was run: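 Male Sprague-Dawley rats (200–250 g) under Nembutal received antagonist at 80 μg/kg i.v., then GH-RH(1–29)NH2 at 3 μg/kg after 5, 15, 30 or 60 min; controls received vehicle (5.5% mannitol). GH was measured by RIA before antagonist and 5 min after GH-RH, and inhibition was calculated as […].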

[5] = tested on: mammary (MDA-MB-468, ZR-75-1), prostatic (PC-3 and DU-145), and pancreatic (MiaPaCa-2, SW-1990 and Capan-2) cancer cell lines; details: MDA-MB-468, ZR-75-1, PC-3, DU-145, MiaPaCa-2, SW-1990, Capan-2; cited from earlier work
IGF-II = details: same cancer cell lines in vitro; cited from earlier work
[6] = tested on: PC-3 human prostate cancer xenografts; experiment: PC-3 human prostate cancer xenografts in nude mice; assay type: in vivo; details: 20 μg daily s.c., 21 days
Protocol: Male nude mice were implanted s.c. with 3 mm^3 pieces of PC-3 human hormone-independent prostate cancer tissue into both flanks. When tumors reached a volume of approx. 40–50 mm^3 the mice were divided into 3 experimental groups. The first and second groups were treated with peptides Peptide 3 and MZ-5-156, respectively, in single daily s.c. injections of 20 μg for 21 days, while the third group served as control. Tumor volumes were measured at weekly intervals, tumor weights were measured at the end of experiment.

[7] = tested on: MDA-MB-468 human breast cancer xenografts; experiment: MDA-MB-468 human breast cancer xenografts in nude mice; assay type: in vivo; details: 20 μg daily s.c., 5 weeks
Protocol: Nude mice bearing MDA-MB-468 hormone-independent human breast cancer xenografts were divided into groups of 10 animals each. The treated groups received single daily s.c. injections of 20 μg of GH-RH antagonists. One group was treated with Peptide 1, a second group was treated with MZ-5-156 for comparison. The control group was injected with the vehicle solvent. The treatment was continued for 5 weeks. Tumors were measured once a week and tumor volume was calculated. The mice were sacrificed at the end of experiment and tumor weights were measured.

[8] = tested on: Estrogen independent MXT mouse mammary tumors; experiment: MXT mouse mammary tumors in BDF mice; assay type: in vivo; details: 20 μg per day
Protocol: Estrogen independent MXT tumors were transplanted sc. to female BDF mice. One day after transplantation, the mice were divided into groups of 10 animals each, and the treatment was started. The mice in groups 1, 2, 3, and 4 received single injections daily of various GH-RH antagonists sc. at 20 μg dose per day for 18 days. In groups 5 and 6, the peptides were administered by Alzet osmotic pumps releasing a daily amount of 20 μg peptide. Tumors were measured regularly, and tumor volume was calculated. The mice were sacrificed on day 18 and tumor weights were measured.

[9] = antagonist 80 μg/kg i.v. 5 min before GH-RH
[10] = antagonist 80 μg/kg i.v. 15 min before GH-RH
[11] = antagonist 80 μg/kg i.v. 15 min before GH-RH 3 μg/kg
[12] = antagonist 80 μg/kg i.v. 30 min before GH-RH
[13] = antagonist 80 μg/kg i.v. 30 min before GH-RH 3 μg/kg
[14] = antagonist 80 μg/kg i.v. 60 min before GH-RH
[15] = antagonist 80 μg/kg i.v. 60 min before GH-RH 3 μg/kg
[16] = rGH=GHblood1/GHblood0, antagonist 80 μg/kg i.v. 5 min before GH-RH 3 μg/kg

Row | Compound | Inhibitory effect on HT-29 human colon cancers (in words) [1] | Final tumor volume (mm^3) [1] | Tumor weight [1] [mg] | Ki [2] [nM] | R.A. (relative affinity compared to Standard antagonist) [2] | Inhibition of GH release (%) 30 min [3] [%] | Inhibition of GH release (%) 60 min [3] [%] | Inhibition of GH release (%) 90 min [3] [%] | Inhibition of GH release (%) 120 min [3] [%] | Inhibition of GH release (%) 0 min [3] [%] | Inhibition of the GH release stimulated by hGH-RH(1–29)NH2 (in words) [4] | Relative inhibition % of GH response [4, 9] [%] | Relative inhibition % of GH response [4, 10] [%] | GH response mean ± S.E.M. [4, 11] | Relative inhibition % of GH response [4, 12] [%] | GH response mean ± S.E.M. [4, 13] | Relative inhibition % of GH response [4, 14] [%] | GH response mean ± S.E.M. [4, 15] | GH response mean ± S.E.M. [4, 16] | Rate of proliferation of cancer cell lines in vitro [5] | also measured
1 | CCCC[C@H](NC(=O)[C@@H](NC(=O)[C@H](CC(=O)O)NC(=O)[C@H](CCC(N)=O)NC(=O)[C@H](CC(C)C)NC(=O)[C@H](CC(C)C)NC(=O)[C@H](CCCCN)NC(=O)[C@H](CCCNC(=N)N)NC(=O)[C@H](C)NC(=O)[C@H](CO)NC(=O)[C@H](CC(C)C)NC(=O)[C@H](CCC(N)=O)NC(=O)[C@H](CC)NC(=O)[C@H](CC(C)C)NC(=O)[C@@H](NC(=O)[C@H](CCCCN)NC(=O)[C@H](CCCNC(=N)N)NC(=O)[C@H](Cc1ccc(O)cc1)NC(=O)[C@H](CCCNC(=N)N)NC(=O)[C@H](CC(N)=O)NC(=O)[C@@H](NC(=O)[C@H](Cc1ccc(Cl)cc1)NC(=O)[C@@H](NC(=O)[C@H](C)NC(=O)[C@H](CC(=O)O)NC(=O)[C@@H](CCCNC(=N)N)NC(=O)[C@H](Cc1ccc(O)cc1)NC(=O)Cc1ccccc1)[C@@H](C)CC)[C@@H](C)O)C(C)C)[C@@H](C)CC)C(=O)N[C@@H](CO)C(=O)N[C@H](CCCNC(=N)N)C(N)=O [Peptide 9, [PhAc^0, D-Arg^2, Phe(pCl)^6, Arg^9, Abu^15, Nle^27, D-Arg^29]hGH-RH(1–29)NH2] (PhAc-Y[dR]DAI[Phe(4-Cl)]TNRYRKVL[Abu]QLSARKLLQDI[Nle]S[dR]-NH2) | smaller but still significant inhibition | 1194 ± 506* mm^3 | 1383 ± 576 | 0.058 | 51 | 87 | 79 | 72 | 59 | 91 | strong and long-lasting inhibition | 75 | 59 | 3.85 ± 0.50 | 67 | 3.34 ± 0.30 | 10 | 7.32 ± 1.16 | 2.75 ± 0.75 |  | 
2 | CCCC[C@H](NC(=O)[C@@H](NC(=O)[C@H](CC(=O)O)NC(=O)[C@H](CCC(N)=O)NC(=O)[C@H](CC(C)C)NC(=O)[C@H](CC(C)C)NC(=O)[C@H](CCCCN)NC(=O)[C@H](CCCNC(=N)N)NC(=O)[C@H](C)NC(=O)[C@H](CO)NC(=O)[C@H](CC(C)C)NC(=O)[C@H](CCC(N)=O)NC(=O)[C@H](CC)NC(=O)[C@H](CC(C)C)NC(=O)[C@@H](NC(=O)[C@H](CCCCN)NC(=O)[C@H](CCCNC(=N)N)NC(=O)[C@H](Cc1ccc(O)cc1)NC(=O)[C@H](CO)NC(=O)[C@H](CC(N)=O)NC(=O)[C@@H](NC(=O)[C@H](Cc1ccc(Cl)cc1)NC(=O)[C@@H](NC(=O)[C@H](C)NC(=O)[C@H](CC(=O)O)NC(=O)[C@@H](CCCNC(=N)N)NC(=O)[C@H](Cc1ccc(O)cc1)NC(=O)Cc1ccccc1)[C@@H](C)CC)[C@@H](C)O)C(C)C)[C@@H](C)CC)C(=O)N[C@H](CCCNC(=N)N)C(=O)N[C@@H](CCCCNC(=N)N)C(N)=O [Peptide 11, [PhAc^0, D-Arg^2, Phe(pCl)^6, Abu^15, Nle^27, D-Arg^28, Har^29]hGH-RH(1–29)NH2] (PhAc-Y[dR]DAI[Phe(4-Cl)]TNSYRKVL[Abu]QLSARKLLQDI[Nle][dR][hArg]-NH2) | only little nonsignificant effect | 1663 ± 610 mm^3 | 1849 ± 681 | 0.071 | 41 | 89 | 80 | 56 | 42 | 96 | strong and long-lasting inhibition | 84 | 50 | 13.64 ± 1.41 | 40 | 16.04 ± 4.36 | 38 | 16.61 ± 6.02 | 5.15 ± 1.11 |  | 
3 | [Ibu^0, Tyr^1, D-Arg^2, Abu^15, Nle^27]hGH-RH(1–28) Agm [MZ-4-71, reference compound] | only little nonsignificant effect | 1953 ± 400 mm^3 | 2189 ± 458 |  |  |  |  |  |  |  |  |  |  |  |  |  |  |  |  | significantly inhibited | Expression of IGF-II mRNA in the cells and concentration of IGF-II secreted into the culture medium (IGF-II): reduced
4 | [PhAc^0, D-Arg^2, Abu^15, Nle^27]hGH-RH(1–28) Agm [MZ-5-156, reference compound] | equally strong inhibitory effect | 908 ± 195* mm^3 | 1012 ± 174 |  |  |  |  |  |  |  |  |  |  |  |  |  |  |  |  | significantly inhibited | Inhibition in tumor volume [6]: 52%; Inhibition in tumor weight [6]: 46%; Final tumor volume (mm^3) ([6]; nude mice): 148.9 ± 41 mm^3; Tumor weight ([6]; nude mice): 104.3 ± 27.2 mg; Expression of IGF-II mRNA in the cells and concentration of IGF-II secreted into the culture medium (IGF-II): reduced; Final tumor volume (mm^3) ([7]; nude mice): 104.4 ± 32.2** mm^3; Tumor weight ([7]; nude mice): 77.7 ± 31.7 mg; Number of regressed tumors ([7]; groups of 10): 3; Inhibitory effect on MXT mouse mammary cancers (in words) ([8]; 18 days): significant inhibition of tumor growth; Tumor volume (mm^3) On day 14 ([8]; single daily sc. injections): 2717 ± 773 mm^3; Tumor volume (mm^3) On day 18 ([8]; single daily sc. injections): 5368 ± 408* mm^3; Tumor weights ([8]; single daily sc. injections, day 18): 4885 ± 480 mg; Number of surviving mice ([8]; single daily sc. injections, groups of 10): 4
